PubChem BioAssay AID298 (DTP/NCI, 2004)
Several values for one entry are separate records, joined by “and”; a condition that tells them apart may be missing. Equal entries are not always repeated. Results filed as inconclusive are left out.

System: MX-1 breast xenograft, intrarenal, nude mice, tumor weight
Assay: NCI In Vivo Anticancer Drug Screen. Data for tumor model Human Mammary Carcinoma MX-1 Xenograft (intrarenal inoculation) in NU/NU BALB/C (nude) mice
Details: endpoint: mean tumor weight change, higher = larger tumour
Method in brief: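 Mice w/ transplanted tumors, drug vs vehicle; endpoint survival or tumor size; value = T/C.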

[1] = dose: 150.0 mg/kg/injection, schedule: Q04DX003 (sc), vehicle: saline
[2] = dose: 300.0 mg/kg/injection, schedule: Q04DX003 (sc), vehicle: saline
[3] = dose: 300.0 mg/kg/injection, schedule: Q04DX003 (sc), vehicle: saline with Tween-80
[4] = dose: 600.0 mg/kg/injection, schedule: Q04DX003 (sc), vehicle: saline with Tween-80
[5] = dose: 1200.0 mg/kg/injection, schedule: Q04DX003 (sc), vehicle: saline with Tween-80

COc1cc([C@@H]2c3cc4c(cc3[C@@H](OC3OC5COC(C)OC5C(O)C3O)[C@H]3COC(=O)[C@H]23)OCO4)cc(OC)c1O (stereo partly drawn)
T/C (dose: 2.0 mg/kg/injection, schedule: Q01DX010 (ip), vehicle: saline): 58 % of control and 62 % of control | T/C (dose: 4.0 mg/kg/injection, schedule: Q01DX010 (ip), vehicle: saline): 23 % of control and 30 % of control | T/C (dose: 8.0 mg/kg/injection, schedule: Q01DX010 (ip), vehicle: saline): 5 % of control and 20 % of control | T/C (dose: 16.0 mg/kg/injection, schedule: Q01DX010 (ip), vehicle: saline): 4 % of control and 6 % of control | T/C (dose: 64.0 mg/kg/injection, schedule: Q04DX003 (ip), vehicle: saline): 76 % of control

CCCCCCCCCCCCCCCCP(=O)(OCCOCCCCCC)OCCOCCCCCC
T/C [1]: 102 % of control | T/C [2]: 97 % of control | T/C (dose: 600.0 mg/kg/injection, schedule: Q04DX003 (sc), vehicle: saline): 70 % of control

CC(=O)Oc1[nH]c(=O)c2cccc3c2c1CCC3
T/C [3]: 107 % of control | T/C [4]: 93 % of control | T/C [5]: 118 % of control | T/C (dose: 2400.0 mg/kg/injection, schedule: Q04DX003 (sc), vehicle: saline with Tween-80): 89 % of control

O=C1C=CC2OC(c3ccccc3)C(O)C2O1 (stereo not drawn)
T/C (dose: 25.0 mg/kg/injection, schedule: Q04DX003 (ip), vehicle: DMSO): 114 % of control | T/C (dose: 50.0 mg/kg/injection, schedule: Q04DX003 (ip), vehicle: DMSO): 40 % of control

C=COC(=O)C(Cc1ccccc1)NC(=O)OCc1ccccc1 (stereo not drawn)
T/C [3]: 63 % of control | T/C [4]: 85 % of control | T/C [5]: 112 % of control

COc1cccc(Sc2ccc([N+](=O)[O-])c3no[n+]([O-])c23)c1
T/C (dose: 7.5 mg/kg/injection, schedule: Q04DX003 (ip), vehicle: saline with Tween-80): 69 % of control and 86 % of control | T/C (dose: 30.0 mg/kg/injection, schedule: Q04DX003 (ip), vehicle: saline with Tween-80): 124 % of control | T/C (dose: 480.0 mg/kg/injection, schedule: Q04DX003 (ip), vehicle: saline with Tween-80): 36 % of control and 41 % of control and 50 % of control

O=C(NC(Cc1ccc(I)cc1)C(=O)O)c1cccc(Br)c1 (stereo not drawn)
T/C (dose: 150.0 mg/kg/injection, schedule: Q04DX003 (ip), vehicle: Klucel (hydroxypropylcellulose) (HPC)): 57 % of control | T/C (dose: 300.0 mg/kg/injection, schedule: Q04DX003 (ip), vehicle: Klucel (hydroxypropylcellulose) (HPC)): 72 % of control | T/C (dose: 600.0 mg/kg/injection, schedule: Q04DX003 (ip), vehicle: Klucel (hydroxypropylcellulose) (HPC)): 76 % of control

CCn1cnc2c(=S)nc[nH]c21
T/C [1]: 91 % of control | T/C [2]: 49 % of control

CC1(C)N=C(N)N=C(N)N1c1ccc(F)c(C(F)(F)F)c1
T/C (dose: 6.25 mg/kg/injection, schedule: Q01DX010 (sc), vehicle: saline): 97 % of control | T/C (dose: 12.5 mg/kg/injection, schedule: Q01DX010 (sc), vehicle: saline): 85 % of control | T/C (dose: 25.0 mg/kg/injection, schedule: Q01DX010 (sc), vehicle: saline): 64 % of control

COc1cccc2c1C(=O)c1c(O)c3c(c(O)c1C2=O)CC(O)(/C(C)=N/NC(=O)CCCCC(=O)N/N=C(\C)C1(O)Cc2c(O)c4c(c(O)c2C(OC2CC(N)C(O)C(C)O2)C1)C(=O)c1c(OC)cccc1C4=O)CC3OC1CC(N)C(O)C(C)O1 (stereo not drawn)
T/C (dose: 12.5 mg/kg/injection, schedule: Q04DX003 (sc), vehicle: water): 41 % of control | T/C (dose: 25.0 mg/kg/injection, schedule: Q04DX003 (sc), vehicle: water): 5 % of control | T/C (dose: 50.0 mg/kg/injection, schedule: Q04DX003 (sc), vehicle: water): -56 % of control

COc1ccc2c(c1)CCn1c(C)c(COC(=O)NC(C)C)c(COC(=O)NC(C)C)c1-2
T/C (dose: 75.0 mg/kg/injection, schedule: Q04DX003 (ip), vehicle: distilled water + Tween-80): -29 % of control

CN=C(NC#N)NCCSCc1nc[nH]c1C
T/C (dose: 600.0 mg/kg/injection, schedule: Q04DX003 (sc), vehicle: Klucel (hydroxypropylcellulose) (HPC)): 108 % of control
